Measured values: article PMC9937538 (Journal of Medicinal Chemistry, 2022)
Structures can show the parent of a compound that is named as a salt. Where two headings read alike, the source gives them in different places.

Assays:
[1] = target: T1, purified recombinant human DPP IV (Homo sapiens, UniProt P27487); assay: In vitro DPP IV activity assay (fluorogenic Gly-Pro-AMC substrate); format: biochemical
T1 construct: purchased Cayman Chemicals (Michigan)
Experimental: The DPP IV inhibition activities of the entire sets of compounds were carried out on purified recombinant human DPP IV using conditions previously optimized.[35]
Four independent in vitro experiments were carried out, and each of those was performed in triplicate in a white half-volume 96-well solid plate. […] Afterward, the samples were mixed and 50 μL was transferred to each plate well. Each reaction was started by adding 50 μL of the substrate solution (200 μM H-Gly-Pro-7-amido-4-methylcoumarin (AMC)) to each well and incubated at 37 °C for 30 min. […] The DPP IV enzyme and the substrate solution were provided by Cayman Chemicals (Michigan).

hCA VA = hCA VA (Homo sapiens, UniProt P35218); assay: CA inhibition, stopped-flow CO2 hydration assay
Sequence of hCA VA (P35218 39-305): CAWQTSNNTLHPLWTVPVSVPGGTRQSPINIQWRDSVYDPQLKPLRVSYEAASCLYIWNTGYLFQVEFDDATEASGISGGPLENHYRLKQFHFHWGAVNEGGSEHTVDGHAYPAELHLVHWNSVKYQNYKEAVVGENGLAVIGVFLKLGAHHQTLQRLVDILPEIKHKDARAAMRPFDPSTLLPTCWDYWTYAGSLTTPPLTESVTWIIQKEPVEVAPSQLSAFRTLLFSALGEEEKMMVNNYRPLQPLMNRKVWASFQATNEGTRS
Experimental: (§1) An applied photophysics stopped-flow instrument was used for assaying the CA-catalyzed CO2 hydration activity.[37]
(§2) The uncatalyzed rates were determined in the same manner and subtracted from the total observed rates. Stock solutions of the inhibitor (0.1 mM) were prepared in distilled–deionized water, and dilutions up to 0.01 nM were done thereafter with the assay buffer. Inhibitor and enzyme solutions were preincubated together for 15 min at room temperature prior to the assay to allow for the formation of the E–I complex. The inhibition constants were obtained by nonlinear least-squares methods using PRISM 3 and the Cheng–Prusoff equation, as reported earlier, and represent the mean from at least three different determinations. All CA isoforms were recombinant proteins obtained in-house, as reported earlier.[44]−[46]

hCA II = hCA II (Homo sapiens, UniProt P00918); assay: CA inhibition, stopped-flow CO2 hydration assay
Experimental: as §1, §2

hCA IV = hCA IV (Homo sapiens, UniProt P22748); assay: CA inhibition, stopped-flow CO2 hydration assay
Sequence of hCA IV (P22748 19-312): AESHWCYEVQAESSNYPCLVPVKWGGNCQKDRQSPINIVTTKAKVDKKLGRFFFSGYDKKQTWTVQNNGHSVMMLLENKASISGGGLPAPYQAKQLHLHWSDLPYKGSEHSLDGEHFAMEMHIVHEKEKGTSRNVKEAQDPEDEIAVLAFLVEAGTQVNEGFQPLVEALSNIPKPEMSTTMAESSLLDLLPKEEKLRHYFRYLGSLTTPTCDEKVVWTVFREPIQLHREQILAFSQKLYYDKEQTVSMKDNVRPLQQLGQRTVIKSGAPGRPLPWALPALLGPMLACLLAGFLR
Experimental: as §1, §2

hCA I = hCA I (Homo sapiens, UniProt P00915); assay: CA inhibition, stopped-flow CO2 hydration assay
Sequence of hCA I (P00915 whole entry): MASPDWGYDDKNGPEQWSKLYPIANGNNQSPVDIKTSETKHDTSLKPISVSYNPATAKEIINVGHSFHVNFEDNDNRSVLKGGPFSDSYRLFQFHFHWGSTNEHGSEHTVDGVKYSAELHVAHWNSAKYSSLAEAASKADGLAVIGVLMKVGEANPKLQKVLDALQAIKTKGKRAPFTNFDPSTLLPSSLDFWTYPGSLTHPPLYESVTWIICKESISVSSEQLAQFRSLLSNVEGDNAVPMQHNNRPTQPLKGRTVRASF
Experimental: as §1, §2

hCA IX = hCA IX (Homo sapiens, UniProt Q16790); assay: CA inhibition, stopped-flow CO2 hydration assay
Experimental: as §1, §2

hCA VB = hCA VB (Homo sapiens, UniProt Q9Y2D0); assay: CA inhibition, stopped-flow CO2 hydration assay
Sequence of hCA VB (Q9Y2D0 34-317): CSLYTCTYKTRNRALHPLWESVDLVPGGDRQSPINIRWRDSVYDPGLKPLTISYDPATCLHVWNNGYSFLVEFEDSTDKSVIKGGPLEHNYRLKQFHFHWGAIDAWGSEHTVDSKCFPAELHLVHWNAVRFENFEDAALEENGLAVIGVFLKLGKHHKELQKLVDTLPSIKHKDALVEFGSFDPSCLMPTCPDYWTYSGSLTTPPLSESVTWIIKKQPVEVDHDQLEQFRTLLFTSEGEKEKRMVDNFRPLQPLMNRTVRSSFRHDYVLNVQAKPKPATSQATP
Experimental: as §1, §2

human cloned α1a-AR = target: T2, human cloned α1a-AR (Homo sapiens, UniProt P35348); assay: α1a-AR binding assay ([3H]prazosin displacement); conditions: human cloned α1a-AR expressed in HEK293 cells
T2 construct: expressed in transfected cells
T2 sequence (P35348 1-466): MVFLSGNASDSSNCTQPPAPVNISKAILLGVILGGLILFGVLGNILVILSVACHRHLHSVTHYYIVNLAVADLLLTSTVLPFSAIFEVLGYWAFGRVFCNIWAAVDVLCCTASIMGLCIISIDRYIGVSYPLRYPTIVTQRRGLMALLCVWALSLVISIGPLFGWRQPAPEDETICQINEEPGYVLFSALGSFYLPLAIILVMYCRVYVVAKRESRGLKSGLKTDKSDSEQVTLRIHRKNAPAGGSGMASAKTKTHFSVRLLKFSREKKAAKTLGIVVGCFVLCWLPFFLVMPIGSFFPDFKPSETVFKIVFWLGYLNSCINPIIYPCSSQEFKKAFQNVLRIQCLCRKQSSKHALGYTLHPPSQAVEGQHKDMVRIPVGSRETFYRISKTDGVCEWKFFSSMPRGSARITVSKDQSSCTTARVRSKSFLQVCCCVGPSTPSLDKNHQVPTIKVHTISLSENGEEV
Excerpt: Since WB-4101 is a potent α1 antagonist, this adrenoreceptor subtype was chosen to assess the loss of adrenergic affinity.
Figure S3. […] Curves […]
from single experiments were fitted using the standard four parameter logistic equation and represent the mean ± S.E.M. of 4 observations, 2 experi-ments. X-axis: Log concentrations of competitive test compounds. Y-axis: normalized [3H]prazosin Bound/Total bound.
In the table are reported the affinity constants, expressed as pKi (-log Ki), of compounds 11, 12 and WB-4101 for human cloned α1a-AR expressed in HEK293 cells. The values represent the arithmetic mean ± S.E.M. of 4 observations, 2 experiments.
ND, not determinable; NA, not available.
Note: data generated from binding assays were analyzed using Prism 5.02 (GraphPad Software Inc., San Diego, CA) and were fitted to a parametric function to derive best estimates of the IC50 and slope factor (nH); IC50 values were then converted to binding constant Ki according to Cheng-Prus- […]
The details on the α1a-AR binding assay have been described before2.
(1 picture or pasted object on this page, not shown here)

[2] = read-out: Ki CA VA, stopped-flow technique, mean from three assays
[3] = read-out: Ki CA II, stopped-flow technique, mean from three assays
[4] = read-out: Ki CA IV, stopped-flow technique, mean from three assays
[5] = read-out: Ki CA I, stopped-flow technique, mean from three assays
[6] = read-out: Ki CA IX, stopped-flow technique, mean from three assays
[7] = read-out: Ki CA VB, stopped-flow technique, mean from three assays
[8] = mean from three different assays

T1 sequence (P27487 whole entry): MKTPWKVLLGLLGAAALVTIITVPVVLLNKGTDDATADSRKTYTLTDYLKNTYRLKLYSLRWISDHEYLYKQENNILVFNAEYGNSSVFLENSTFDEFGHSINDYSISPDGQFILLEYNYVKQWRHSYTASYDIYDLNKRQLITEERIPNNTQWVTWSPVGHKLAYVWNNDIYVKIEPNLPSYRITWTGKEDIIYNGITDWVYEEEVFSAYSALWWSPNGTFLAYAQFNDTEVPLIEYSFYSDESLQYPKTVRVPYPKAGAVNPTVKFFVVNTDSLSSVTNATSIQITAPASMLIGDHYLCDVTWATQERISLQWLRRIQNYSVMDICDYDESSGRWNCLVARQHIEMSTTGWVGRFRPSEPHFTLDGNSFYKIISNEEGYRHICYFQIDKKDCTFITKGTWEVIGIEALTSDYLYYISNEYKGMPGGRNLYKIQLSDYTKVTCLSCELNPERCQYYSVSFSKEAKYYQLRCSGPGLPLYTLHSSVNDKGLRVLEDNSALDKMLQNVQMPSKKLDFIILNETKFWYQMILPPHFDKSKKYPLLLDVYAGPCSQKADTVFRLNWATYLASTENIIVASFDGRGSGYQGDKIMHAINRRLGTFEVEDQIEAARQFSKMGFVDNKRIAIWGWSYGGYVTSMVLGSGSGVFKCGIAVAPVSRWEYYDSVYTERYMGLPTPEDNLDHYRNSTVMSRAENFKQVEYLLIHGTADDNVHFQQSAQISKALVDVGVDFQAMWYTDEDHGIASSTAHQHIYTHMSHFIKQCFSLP

| Compound | Ki (hCA VA; [2]) [µM] | Ki (hCA II; [3]) [µM] | Ki (hCA IV; [4]) [µM] | Ki (hCA I; [5]) [µM] | Ki (hCA IX; [6]) [µM] | Ki (hCA VB; [7]) [µM] | other results |
| --- | --- | --- | --- | --- | --- | --- | --- |
| COc1cccc(OC)c1OCCNCC1COc2ccccc2O1 (stereo not shown) [WB-4101, 2-[(2,6-dimethoxyphenoxyethyl)aminomethyl]-1,4-benzodioxane, reference compound] | > 10 | > 10 | > 10 | > 10 | > 10 | > 10 | IC50 [1]: > 700 µM |
| CN(C)S(=O)(=O)c1ccc(OCCNCC2COc3ccccc3O2)cc1 (stereo not shown) [Compound 4, [((2-(4-Dimethylsulfonamidephenoxy)ethyl)amino)-methyl]-1,4-benzodioxane Hydrochloride] | > 10 | > 10 | > 10 | > 10 | > 10 | > 10 | – |
| CCNS(=O)(=O)c1ccc(OCCNCC2COc3ccccc3O2)cc1 (stereo not shown) [Compound 3, [((2-(4-Ethylsulfonamidephenoxy)ethyl)amino)-methyl]-1,4-benzodioxane Hydrochloride] | > 10 | > 10 | > 10 | > 10 | > 10 | > 10 | – |
| CC(C)CS(=O)(=O)Nc1ccc(OCCNCC2COc3ccccc3O2)cc1 (stereo not shown) [Compound 8, [((2-(4-Isobutylsulfanilaminophenoxy)ethyl)amino)-methyl]-1,4-benzodioxane Hydrochloride] | > 10 | > 10 | > 10 | > 10 | > 10 | > 10 | – |
| CCS(=O)(=O)Nc1ccc(OCCNCC2COc3ccccc3O2)cc1 (stereo not shown) [Compound 7, [((2-(4-Ethylsulfonylamidephenoxy)ethyl)amino)-methyl]-1,4-benzodioxane Hydrochloride] | > 10 | > 10 | > 10 | > 10 | > 10 | > 10 | – |
| CS(=O)(=O)Nc1ccc(OCCNCC2COc3ccccc3O2)cc1 (stereo not shown) [Compound 6, [((2-(4-Methylsulfonylamidephenoxy)ethyl)amino)-methyl]-1,4-benzodioxane Hydrochloride] | > 10 | > 10 | > 10 | > 10 | > 10 | > 10 | – |
| NS(=O)(=O)c1ccc(OCCNCC2COc3ccccc3O2)cc1 (stereo not shown) [Compound 1, [((2-(4-Sulfonamidephenoxy)ethyl)amino)-methyl]-1,4-benzodioxane Hydrochloride] | – | – | – | – | 0.0203 | – | – |
| CC(C)NS(=O)(=O)c1ccc(OCCNCC2COc3ccccc3O2)cc1 (stereo not shown) [Compound 5, [((2-(4-Isopropylsulfonamidephenoxy)ethyl)amino)-methyl]-1,4-benzodioxane Hydrochloride] | – | – | – | – | – | – | Ki (hCA VA): > 10 µM; Ki (hCA II): > 10 µM; Ki (hCA IV): > 10 µM; Ki (hCA I): > 10 µM; Ki (hCA IX): > 10 µM; Ki (hCA VB): > 10 µM |
| CNS(=O)(=O)c1ccc(OCCNCC2COc3ccccc3O2)cc1 (stereo not shown) [Compound 2, [((2-(4-Methylsulfonamidephenoxy)ethyl)amino)-methyl]-1,4-benzodioxane Hydrochloride] | > 10 | > 10 | > 10 | > 10 | > 10 | > 10 | – |

Continued, in another order:

| Ki (hCA VA; [2]) [µM] | Ki (hCA II; [3]) [µM] | Ki (hCA IV; [4]) [µM] | Ki (hCA I; [5]) [µM] | Ki (hCA IX; [6]) [µM] | Ki (hCA VB; [7]) [µM] | Compound | other results |
| --- | --- | --- | --- | --- | --- | --- | --- |
| – | – | – | – | 0.111 | – | COc1cc(S(N)(=O)=O)ccc1OCCC(N=[N+]=[N-])C1COc2ccccc2O1 (stereo not shown) [Compound 10, 3-Methoxy-4-(3-azido-3-(1,4-benzodioxan)propoxy)benzenesulfonamide] | – |
| – | – | – | – | 0.745 | – | COc1cc(S(N)(=O)=O)cc(OC)c1OCCC(N=[N+]=[N-])C1COc2ccccc2O1 (stereo not shown) [Compound 11, 3,5-Dimethoxy-4-(3-azido-3-(1,4-benzodioxan)propoxy)benzenesulfonamide] | IC50 [1, 8]: 0.0332 ± 0.0058 µM; binding affinity toward α1a-AR (in words) (human cloned α1a-AR): absence of the binding affinity; pKi α1a-AR (human cloned α1a-AR; mean ± S.E.M.): >4 |
| – | – | – | – | 0.328 | – | [N-]=[N+]=NC(CCOc1ccc(S(N)(=O)=O)cc1)C1COc2ccccc2O1 (stereo not shown) [Compound 9, 4-(3-Azido-3-(1,4-benzodioxan)propoxy)benzenesulfonamide] | IC50 [1, 8]: 669 ± 23.5 µM |
| > 10 | > 10 | > 10 | > 10 | > 10 | > 10 | N[C@@H](CC(=O)N1CCn2c(nnc2C(F)(F)F)C1)Cc1cc(F)c(F)cc1F [Sitagliptin, reference compound] | – |
| – | – | – | – | 0.955 | – | COc1cc(S(N)(=O)=O)cc(OC)c1OCCC(N)C1COc2ccccc2O1 (stereo not shown) [Compound 14, 3,5-Dimethoxy-4-(3-amino-3-(1,4-benzodioxan)propoxy)benzenesulfonamide] | IC50 [1, 8]: 0.0283 ± 0.0035 µM |
| – | – | – | – | 0.0311 | – | COc1cc(S(N)(=O)=O)ccc1OCCC(N)C1COc2ccccc2O1 (stereo not shown) [Compound 13, 3-Methoxy-4-(3-amino-3-(1,4-benzodioxan)propoxy)benzenesulfonamide] | IC50 [1, 8]: 57.4 ± 3.2 µM |
